# Measurements as given in PubChem BioAssay (NCI).
#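 48-hour exposure; five concentrations; linearly interpolated endpoints. Here, GI50 denotes the concentration required for 50% inhibition of growth. Definition used: TGI = concentration required for complete inhibition of growth.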
# Legend:
# Test in all cases: NCI anticancer screen, dose series, 48 h
# SF-268 CNS = test system: SF-268 CNS
# CAKI-1 renal = test system: CAKI-1 renal
# SF-295 CNS = test system: SF-295 CNS
# 786-0 renal = test system: 786-0 renal
# SNB-19 CNS = test system: SNB-19 CNS
# HCC-2998 colon = test system: HCC-2998 colon
# UO-31 renal = test system: UO-31 renal
# MCF7 breast = test system: MCF7 breast
# DU-145 prostate = test system: DU-145 prostate
# MDA-N = test system: MDA-N
# SW-620 colon = test system: SW-620 colon
# CCRF-CEM leukemia = test system: CCRF-CEM leukemia
# SF-539 CNS = test system: SF-539 CNS
# MOLT-4 leukemia = test system: MOLT-4 leukemia
# HT29 colon = test system: HT29 colon
# SK-MEL-5 melanoma = test system: SK-MEL-5 melanoma
# OVCAR-3 ovarian = test system: OVCAR-3 ovarian
# HCT-15 colon = test system: HCT-15 colon
# NCI-H23 lung = test system: NCI-H23 lung
# OVCAR-4 ovarian = test system: OVCAR-4 ovarian
# SN12C renal = test system: SN12C renal
# M14 melanoma = test system: M14 melanoma
# HL-60(TB) leukemia = test system: HL-60(TB) leukemia
# IGROV1 ovarian = test system: IGROV1 ovarian
# OVCAR-5 ovarian = test system: OVCAR-5 ovarian
# HOP-62 NSCLC = test system: HOP-62 NSCLC
# ACHN renal = test system: ACHN renal
# PC-3 prostate = test system: PC-3 prostate
# SK-OV-3 ovarian = test system: SK-OV-3 ovarian
# RPMI-8226 leukemia = test system: RPMI-8226 leukemia
# NCI-H226 lung = test system: NCI-H226 lung
# COLO 205 colon = test system: COLO 205 colon
# NCI-H522 lung = test system: NCI-H522 lung
# A549 NSCLC = test system: A549 NSCLC
# TK-10 renal = test system: TK-10 renal
# UACC-257 melanoma = test system: UACC-257 melanoma
# MALME-3M melanoma = test system: MALME-3M melanoma
# U251 CNS = test system: U251 CNS
# NCI-H460 lung = test system: NCI-H460 lung
# UACC-62 melanoma = test system: UACC-62 melanoma
# HCT-116 colon = test system: HCT-116 colon
# NCI/ADR-RES ovarian = test system: NCI/ADR-RES ovarian
# RXF 393 renal = test system: RXF 393 renal
# K-562 leukemia = test system: K-562 leukemia
# SK-MEL-28 melanoma = test system: SK-MEL-28 melanoma
# SR leukemia = test system: SR leukemia
# OVCAR-8 ovarian = test system: OVCAR-8 ovarian
# BT-549 breast = test system: BT-549 breast
# EKVX NSCLC = test system: EKVX NSCLC
# SNB-75 CNS = test system: SNB-75 CNS
# KM12 colon = test system: KM12 colon
# T-47D breast = test system: T-47D breast
# A498 renal = test system: A498 renal
# LOX IMVI melanoma = test system: LOX IMVI melanoma
# MDA-MB-231 breast = test system: MDA-MB-231 breast
# MDA-MB-435 = test system: MDA-MB-435
# SK-MEL-2 melanoma = test system: SK-MEL-2 melanoma
# HS 578T breast = test system: HS 578T breast
# HOP-92 NSCLC = test system: HOP-92 NSCLC
structure (smiles),measurement,setting,value
N#CCCC(CC#N)N1CCN(C(CC#N)CCC#N)CC1 (stereo unspecified),TGI,SF-268 CNS,> 100 µM
same,TGI,CAKI-1 renal,> 100 µM
same,TGI,SF-295 CNS,> 100 µM
same,TGI,786-0 renal,> 100 µM
same,TGI,SNB-19 CNS,> 100 µM
same,TGI,HCC-2998 colon,> 100 µM
same,TGI,UO-31 renal,> 100 µM
same,TGI,MCF7 breast,> 100 µM
same,TGI,DU-145 prostate,> 100 µM
same,TGI,MDA-N,> 100 µM
same,TGI,SW-620 colon,> 100 µM
same,TGI,CCRF-CEM leukemia,> 100 µM
same,TGI,SF-539 CNS,> 100 µM
same,TGI,MOLT-4 leukemia,> 100 µM
same,TGI,HT29 colon,> 100 µM
same,TGI,SK-MEL-5 melanoma,> 100 µM
same,TGI,OVCAR-3 ovarian,> 100 µM
same,TGI,HCT-15 colon,> 100 µM
same,TGI,NCI-H23 lung,> 100 µM
same,TGI,OVCAR-4 ovarian,> 100 µM
same,TGI,SN12C renal,> 100 µM
same,TGI,M14 melanoma,> 100 µM
same,TGI,HL-60(TB) leukemia,> 100 µM
same,TGI,IGROV1 ovarian,> 100 µM
same,TGI,OVCAR-5 ovarian,> 100 µM
same,TGI,HOP-62 NSCLC,> 100 µM
same,TGI,ACHN renal,> 100 µM
same,TGI,PC-3 prostate,> 100 µM
same,TGI,SK-OV-3 ovarian,> 100 µM
same,TGI,RPMI-8226 leukemia,> 100 µM
same,TGI,NCI-H226 lung,> 100 µM
same,TGI,COLO 205 colon,> 100 µM
same,TGI,NCI-H522 lung,> 100 µM
same,TGI,A549 NSCLC,> 100 µM
same,TGI,TK-10 renal,> 100 µM
same,TGI,UACC-257 melanoma,> 100 µM
same,TGI,MALME-3M melanoma,> 100 µM
same,TGI,U251 CNS,> 100 µM
same,TGI,NCI-H460 lung,> 100 µM
same,TGI,UACC-62 melanoma,> 100 µM
same,TGI,HCT-116 colon,> 100 µM
same,TGI,NCI/ADR-RES ovarian,> 100 µM
same,TGI,RXF 393 renal,> 100 µM
same,TGI,K-562 leukemia,> 100 µM
same,TGI,SK-MEL-28 melanoma,> 100 µM
same,TGI,SR leukemia,> 100 µM
same,TGI,OVCAR-8 ovarian,> 100 µM
same,TGI,BT-549 breast,> 100 µM
same,TGI,EKVX NSCLC,> 100 µM
same,TGI,SNB-75 CNS,> 100 µM
Cc1c(NC(=O)c2cc(C(N)=O)nc3cc(F)ccc23)c(C(F)(F)F)nn1Cc1ccc(C#N)cc1,GI50,SF-268 CNS,14.3 µM
same,TGI,SF-268 CNS,> 69.3 µM
same,GI50,CAKI-1 renal,5.66 µM
same,TGI,CAKI-1 renal,35.1 µM
same,GI50,SF-295 CNS,10.4 µM
same,TGI,SF-295 CNS,54.9 µM
same,GI50,786-0 renal,3.77 µM
same,TGI,786-0 renal,> 100 µM
same,GI50,SNB-19 CNS,3.44 µM
same,TGI,SNB-19 CNS,30 µM
same,GI50,HCC-2998 colon,5.16 µM
same,TGI,HCC-2998 colon,> 100 µM
same,GI50,UO-31 renal,1.78 µM
same,TGI,UO-31 renal,> 100 µM
same,GI50,MCF7 breast,0.276 µM
same,TGI,MCF7 breast,17.7 µM
same,GI50,KM12 colon,0.512 µM
same,TGI,KM12 colon,> 37.9 µM
same,GI50,DU-145 prostate,1.1 µM
same,TGI,DU-145 prostate,> 56.4 µM
same,GI50,SW-620 colon,23.8 µM
same,TGI,SW-620 colon,> 100 µM
same,GI50,CCRF-CEM leukemia,0.167 µM
same,TGI,CCRF-CEM leukemia,> 100 µM
same,GI50,SF-539 CNS,14.3 µM
same,TGI,SF-539 CNS,49.6 µM
same,GI50,MOLT-4 leukemia,1.7 µM
same,TGI,MOLT-4 leukemia,> 100 µM
same,GI50,HT29 colon,0.219 µM
same,TGI,HT29 colon,1.91 µM
same,GI50,SK-MEL-5 melanoma,16.3 µM
same,TGI,SK-MEL-5 melanoma,> 100 µM
same,GI50,OVCAR-3 ovarian,2.4 µM
same,TGI,OVCAR-3 ovarian,> 64.5 µM
same,GI50,HCT-15 colon,23 µM
same,TGI,HCT-15 colon,> 100 µM
same,GI50,NCI-H23 lung,22.2 µM
same,TGI,NCI-H23 lung,> 100 µM
same,GI50,OVCAR-4 ovarian,4.91 µM
same,TGI,OVCAR-4 ovarian,> 76.9 µM
same,GI50,SN12C renal,1.59 µM
same,TGI,SN12C renal,> 72 µM
same,GI50,M14 melanoma,58.8 µM
same,TGI,M14 melanoma,> 100 µM
same,GI50,HL-60(TB) leukemia,29.8 µM
same,TGI,HL-60(TB) leukemia,> 100 µM
same,GI50,T-47D breast,0.295 µM
same,TGI,T-47D breast,31.3 µM
same,GI50,IGROV1 ovarian,2.02 µM
same,TGI,IGROV1 ovarian,> 80.7 µM
same,GI50,OVCAR-5 ovarian,8.61 µM
same,TGI,OVCAR-5 ovarian,97.5 µM
same,GI50,HOP-62 NSCLC,13.6 µM
same,TGI,HOP-62 NSCLC,> 87.3 µM
same,GI50,ACHN renal,12.4 µM
same,TGI,ACHN renal,71.1 µM
same,GI50,PC-3 prostate,0.451 µM
same,TGI,PC-3 prostate,24.4 µM
same,GI50,SK-OV-3 ovarian,2.76 µM
same,TGI,SK-OV-3 ovarian,21.4 µM
same,GI50,RPMI-8226 leukemia,0.0101 µM
same,TGI,RPMI-8226 leukemia,3.67 µM
same,GI50,NCI-H226 lung,13.4 µM
same,TGI,NCI-H226 lung,> 100 µM
same,GI50,COLO 205 colon,0.504 µM
same,TGI,COLO 205 colon,3.23 µM
same,GI50,A498 renal,15.1 µM
same,TGI,A498 renal,62.4 µM
same,GI50,NCI-H522 lung,18.3 µM
same,TGI,NCI-H522 lung,> 64.4 µM
same,GI50,A549 NSCLC,16.6 µM
same,TGI,A549 NSCLC,> 100 µM
same,GI50,TK-10 renal,3.2 µM
same,TGI,TK-10 renal,> 53.6 µM
same,GI50,LOX IMVI melanoma,8.13 µM
same,TGI,LOX IMVI melanoma,> 100 µM
same,GI50,UACC-257 melanoma,> 95.3 µM
same,TGI,UACC-257 melanoma,> 100 µM
same,GI50,MALME-3M melanoma,14.4 µM
same,TGI,MALME-3M melanoma,74.5 µM
same,GI50,U251 CNS,1.67 µM
same,TGI,U251 CNS,18.9 µM
same,GI50,NCI-H460 lung,4.76 µM
same,TGI,NCI-H460 lung,> 100 µM
same,GI50,UACC-62 melanoma,6.35 µM
same,TGI,UACC-62 melanoma,> 100 µM
same,GI50,HCT-116 colon,2.84 µM
same,TGI,HCT-116 colon,> 100 µM
same,GI50,NCI/ADR-RES ovarian,12.3 µM
same,TGI,NCI/ADR-RES ovarian,> 100 µM
same,GI50,MDA-MB-231 breast,17.8 µM
same,TGI,MDA-MB-231 breast,> 100 µM
same,GI50,MDA-MB-435,56.9 µM
same,TGI,MDA-MB-435,> 100 µM
same,GI50,RXF 393 renal,5.56 µM
same,TGI,RXF 393 renal,28.8 µM
same,GI50,SK-MEL-2 melanoma,19.2 µM
same,TGI,SK-MEL-2 melanoma,> 83.7 µM
same,GI50,K-562 leukemia,13.1 µM
same,TGI,K-562 leukemia,> 100 µM
same,GI50,SK-MEL-28 melanoma,37.4 µM
same,TGI,SK-MEL-28 melanoma,> 100 µM
same,GI50,SR leukemia,48.8 µM
same,TGI,SR leukemia,> 100 µM
same,GI50,OVCAR-8 ovarian,7.02 µM
same,TGI,OVCAR-8 ovarian,> 100 µM
same,GI50,BT-549 breast,1.78 µM
same,TGI,BT-549 breast,25.3 µM
same,GI50,HS 578T breast,0.0592 µM
same,TGI,HS 578T breast,8.46 µM
same,GI50,EKVX NSCLC,21.9 µM
same,TGI,EKVX NSCLC,> 100 µM
same,GI50,HOP-92 NSCLC,1.28 µM
same,TGI,HOP-92 NSCLC,18.1 µM
same,GI50,SNB-75 CNS,5.8 µM
same,TGI,SNB-75 CNS,45.2 µM
